“Also recorded” adds a separate entry of the source.
Test system: BRAF V600E mutation in urinary cfDNA
Test: Monitoring of BRAF V600E mutation in urinary cfDNA (droplet digital PCR) of treated LCH/ECD patients
Assay type: in vivo, human
Conditions: for detection of mutant BRAF V600E in urine cfDNA, treatment naive versus treated patient samples: FIG. 3, treated versus treatment-naive samples; for BRAF V600E mutation burden in urinary cfDNA over time on therapy: histiocytosis (LCH/ECD) patients, serial urine samples during treatment, FIG. 4-6
Protocol: Urinary cell-free (cf)DNA analysis was performed in all patients and plasma cfDNA analysis in 19/26 patients. Serial urinary samples in 10 BRAF V600E mutant samples were also obtained to track disease burden with therapy. Urine and plasma cfDNA were quantified by a droplet digital PCR (ddPCR; QX-100, BioRad).
A two-step assay design was developed for a 28-30 basepair footprint in the target mutant gene sequence. FIG. 1 summarizes the assay design, which includes a first preamplification step to increase the number of copies of a target mutant gene sequence relative to wild-type gene sequences that are present in the sample. The pre-amplification is conducted in the presence of a wild-type (non-mutant) suppressing “WT blocker” oligonucleotide that is complementary to the wild-type sequence (but not the mutant sequence) to decrease amplification of wild-type DNA. The pre-amplification is performed with primers that include adapters (or “tags”) at the 5′ end to facilitate amplification in the second step.
The second step is additional amplification with primers complementary to the tags on the ends of the primers used in the first step and a TaqMan (reporter) probe oligonucleotide complementary to the mutant sequence for quantitative, digital droplet PCR.

| SMILES | detection of mutant BRAF V600E in urine cfDNA, treatment naive versus treated patient samples | BRAF V600E mutation burden in urinary cfDNA over time on therapy | BRAF V600E mutation in urinary cfDNA after the end of treatment (one subject, end of treatment, FIG. 6) |
| --- | --- | --- | --- |
| CCCS(=O)(=O)Nc1ccc(F)c(C(=O)c2c[nH]c3ncc(-c4ccc(Cl)cc4)cc23)c1F [vemurafenib, N-{3-[5-(4-Chlorophenyl)-1H-pyrrolo[2,3-b]pyridin-3-carbonyl]-2,4-difluorophenyl}propane-1-sulfonamide] | decreased detection of mutant BRAF V600E | a decrease in the mutation in urinary cfDNA; also recorded: decreased BRAF mutant allele burden with therapy | an increase, or “rebound,” in the amount of the mutation in urinary cfDNA |
| CC(C)(C)c1nc(-c2cccc(NS(=O)(=O)c3c(F)cccc3F)c2F)c(-c2ccnc(N)n2)s1 [dabrafenib, N-{3-[5-(2-aminopyrimidin-4-yl)-2-tert-butyl-1,3-thiazol-4-yl]-2-fluorophenyl}-2,6-difluorobenzenesulfonamide] | decreased detection of mutant BRAF V600E | a decrease in the mutation in cfDNA during the course of treatment |  |
